Measurements published in patent publication US10954214B2 (Janssen Pharmaceutica NV, priority 2016, dated 2021).
pIC50: −log10 of the molar value.

Experiments:
[1] = biological target: full-length MALT1 protein (Strep-MALT1(1-824)-His) (Homo sapiens (Human), UniProt Q9UDY8); test: MALT1 Biochemical Protease Assay (Ac-LRSR-AMC substrate); settings: 10 nM FL MALT1, 200 μM Ac-LRSR-AMC, 4 h at RT; read-out: MALT1_Biochemical activity (Ac-LRSR-amc) IC50
Method in brief: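 Full-length MALT1 pre-incubated with compounds (30 μM to 0.5 nM, 11 threefold steps) for 50 min at RT. After Ac-LRSR-AMC was added, the reaction ran 4 h at RT and AMC fluorescence was read. IC50 and Hill slope from curve fitting against no-enzyme and no-compound controls.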

[2] = tested on: IL6 secretion by OCI-LY3 ABC-DLBCL cells; test: Human IL6 Mesoscale assay (OCI-LY3); type: cell-based; settings: Homo sapiens, 24 h
Method in brief: (§1)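 TMD8 or OCI-LY3 cells (100,000/well) were exposed to compounds in 9 twofold dilutions from 15 μM to 58.6 nM (0.3% DMSO) for 24 h at 37 °C. Supernatant IL6 and IL10 were quantified by MSD electrochemiluminescence immunoassay. DMSO defined maximum signal and BTK inhibitor RN486 (30 nM–131 pM) defined maximum inhibition.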

[3] = tested on: IL10 secretion by OCI-LY3 ABC-DLBCL cells; test: Human IL10 Mesoscale assay (OCI-LY3); type: cell-based; settings: Homo sapiens, 24 h
Method in brief: as §1

Sequence of full-length MALT1 protein (Strep-MALT1(1-824)-His) (Q9UDY8 whole entry): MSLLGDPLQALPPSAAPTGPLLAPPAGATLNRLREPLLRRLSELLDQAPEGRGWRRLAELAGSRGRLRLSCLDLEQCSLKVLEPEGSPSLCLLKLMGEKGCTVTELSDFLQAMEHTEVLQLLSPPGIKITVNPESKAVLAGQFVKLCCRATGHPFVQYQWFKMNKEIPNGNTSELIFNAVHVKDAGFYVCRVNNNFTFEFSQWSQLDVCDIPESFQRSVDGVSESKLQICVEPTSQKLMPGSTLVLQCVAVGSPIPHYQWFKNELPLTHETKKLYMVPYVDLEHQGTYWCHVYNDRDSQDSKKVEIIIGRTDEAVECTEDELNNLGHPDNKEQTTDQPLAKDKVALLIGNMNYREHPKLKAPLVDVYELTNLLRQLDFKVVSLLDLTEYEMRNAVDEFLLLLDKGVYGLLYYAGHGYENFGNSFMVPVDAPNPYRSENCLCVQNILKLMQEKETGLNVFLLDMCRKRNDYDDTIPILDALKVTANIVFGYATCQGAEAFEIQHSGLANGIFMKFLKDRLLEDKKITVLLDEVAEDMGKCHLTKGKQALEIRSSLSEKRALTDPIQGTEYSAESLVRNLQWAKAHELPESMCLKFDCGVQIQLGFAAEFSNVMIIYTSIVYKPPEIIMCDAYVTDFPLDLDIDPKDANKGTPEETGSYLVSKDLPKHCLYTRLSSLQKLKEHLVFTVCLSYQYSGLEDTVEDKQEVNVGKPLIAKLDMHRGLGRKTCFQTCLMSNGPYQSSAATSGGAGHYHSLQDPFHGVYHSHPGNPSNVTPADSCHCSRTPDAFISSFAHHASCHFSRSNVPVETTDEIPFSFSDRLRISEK

Row | Compound | pIC50 [1] | pIC50 [2] | pIC50 [3]
1 | O=C(Nc1cnc(-n2nnc3cnccc32)c(Cl)c1)c1cnn(-c2cccc3ncccc23)c1C(F)(F)F [Cpd 163, N-(6-(1H-[1,2,3]triazolo[4,5-c]pyridin-1-yl)-5-chloropyridin-3-yl)-1-(quinolin-5-yl)-5-(trifluoromethyl)-1H-pyrazole-4-carboxamide] | 6.65 | 7.02 | 7.15
2 | COC(=O)c1ncc(NC(=O)c2cnn(-c3cccc4c(=O)[nH]ccc34)c2C(F)(F)F)cc1Cl [Cpd 355, methyl 3-chloro-5-(1-(1-oxo-1,2-dihydroisoquinolin-5-yl)-5-(trifluoromethyl)-1H-pyrazole-4-carboxamido)picolinate] | 8.00 | 6.04 | 6.39
3 | C[C@H](O)c1nccc2c(-n3ncc(C(=O)Nc4cnc(-n5nccn5)c(Cl)c4)c3C(F)(F)F)cccc12 (single isomer, unassigned) [Cpd 445, (*S)—N-(5-chloro-6-(2H-1,2,3-triazol-2-yl)pyridin-3-yl)-1-(1-(1-hydroxyethyl)isoquinolin-5-yl)-5-(trifluoromethyl)-1H-pyrazole-4-carboxamide] | 7.10 | 6.73 | 7.03
4 | Cc1ncc(-n2ncc(C(=O)Nc3cnc(-n4nccn4)c(Cl)c3)c2C(F)(F)F)c2ccsc12 [Cpd 434, N-(5-chloro-6-(2H-1,2,3-triazol-2-yl)pyridin-3-yl)-1-(7-methylthieno[2,3-c]pyridin-4-yl)-5-(trifluoromethyl)-1H-pyrazole-4-carboxamide] | 6.67 | 6.54 | 6.76
5 | O=C(Nc1ccnc(C(F)(F)F)c1)c1cnn(-c2cnc(N3CC(O)C3)c3sccc23)c1C(F)(F)F [Cpd 210, 1-(7-(3-hydroxyazetidin-1-yl)thieno[2,3-c]pyridin-4-yl)-5-(trifluoromethyl)-N-(2-(trifluoromethyl)pyridin-4-yl)-1H-pyrazole-4-carboxamide] | 7.14 | 6.38 | 6.42
6 | Cc1nc2ccccn2c1-n1ncc(C(=O)Nc2cnc(-n3nccn3)c(C#N)c2)c1C(F)(F)F [Cpd 295, N-(5-cyano-6-(2H-1,2,3-triazol-2-yl)pyridin-3-yl)-1-(2-methylimidazo[1,2-a]pyridin-3-yl)-5-(trifluoromethyl)-1H-pyrazole-4-carboxamide] | 7.13 | 5.90 | 6.14
7 | O=C(Nc1cnc(-n2nccn2)c(Cl)c1)c1cnn(-c2cccc3[nH]c(=O)ccc23)c1C(F)(F)F [Cpd 344, N-(5-chloro-6-(2H-1,2,3-triazol-2-yl)pyridin-3-yl)-1-(2-oxo-1,2-dihydroquinolin-5-yl)-5-(trifluoromethyl)-1H-pyrazole-4-carboxamide] | 5.91 | 7.28 | 7.28
8 | O=C(Nc1cnc(-n2nncc2CO)c(Cl)c1)c1cnn(-c2cccc3c(=O)[nH]ccc23)c1C(F)(F)F [Cpd 168, N-(5-chloro-6-(5-(hydroxymethyl)-1H-1,2,3-triazol-1-yl)pyridin-3-yl)-1-(1-oxo-1,2-dihydroisoquinolin-5-yl)-5-(trifluoromethyl)-1H-pyrazole-4-carboxamide] | 6.97 | 6.91 | 7.36
9 | Cc1cc(NC(=O)c2cnn(-c3cccc4scnc34)c2C(F)(F)F)c(C)nc1-n1nccn1 [Cpd 300, 1-(benzo[d]thiazol-4-yl)-N-(2,5-dimethyl-6-(2H-1,2,3-triazol-2-yl)pyridin-3-yl)-5-(trifluoromethyl)-1H-pyrazole-4-carboxamide] | 5.38 | 6.28 | 6.47
10 | O=C(Nc1cnc(-c2ncco2)c(Cl)c1)c1cnn(-c2ccc(F)c3ncccc23)c1C(F)(F)F [Cpd 288, N-(5-chloro-6-(oxazol-2-yl)pyridin-3-yl)-1-(8-fluoroquinolin-5-yl)-5-(trifluoromethyl)-1H-pyrazole-4-carboxamide] | 7.02 | 6.60 | 7.04
11 | O=C(Nc1cnc(-c2nn[nH]n2)c(Cl)c1)c1cnn(-c2cccc3ncccc23)c1C(F)(F)F [Cpd 307, N-(5-chloro-6-(2H-tetrazol-5-yl)pyridin-3-yl)-1-(quinolin-5-yl)-5-(trifluoromethyl)-1H-pyrazole-4-carboxamide] | 7.24 | 6.35 | 6.37
12 | Cc1ncc(NC(=O)c2cnn(-c3cccc4c(=O)[nH]ccc34)c2C(F)(F)F)cc1C(F)(F)F [Cpd 348, N-(6-methyl-5-(trifluoromethyl)pyridin-3-yl)-1-(1-oxo-1,2-dihydroisoquinolin-5-yl)-5-(trifluoromethyl)-1H-pyrazole-4-carboxamide] | 6.71 | 7.00 | 7.17
13 | N#Cc1cc(NC(=O)c2cnn(-c3cccc4nc(F)ccc34)c2C(F)(F)F)cnc1-n1nccn1 [Cpd 291, N-(5-cyano-6-(2H-1,2,3-triazol-2-yl)pyridin-3-yl)-1-(2-fluoroquinolin-5-yl)-5-(trifluoromethyl)-1H-pyrazole-4-carboxamide] | 7.09 | 6.96 | 7.00
14 | Cn1nc(-c2ncc(NC(=O)c3cnn(-c4cccc5ncccc45)c3C(F)(F)F)cc2C#N)cc1C(=O)O [Cpd 255, 3-(3-cyano-5-(1-(quinolin-5-yl)-5-(trifluoromethyl)-1H-pyrazole-4-carboxamido)pyridin-2-yl)-1-methyl-1H-pyrazole-5-carboxylic acid] | 6.56 | 7.23 | 7.39
15 | Cn1cc(-n2ncc(C(=O)Nc3cnc(-n4nccn4)c(Cl)c3)c2C(F)(F)F)c2ccccc2c1=O [Cpd 423, N-(5-chloro-6-(2H-1,2,3-triazol-2-yl)pyridin-3-yl)-1-(2-methyl-1-oxo-1,2-dihydroisoquinolin-4-yl)-5-(trifluoromethyl)-1H-pyrazole-4-carboxamide] | 7.27 | 6.91 | 7.36
16 | O=C(Nc1cnc(-n2nccn2)c(Cl)c1)c1cnn(-c2nsc3ccccc23)c1C(F)(F)F [Cpd 290, 1-(benzo[d]isothiazol-3-yl)-N-(5-chloro-6-(2H-1,2,3-triazol-2-yl)pyridin-3-yl)-5-(trifluoromethyl)-1H-pyrazole-4-carboxamide] | 7.09 | 6.73 | 6.96
17 | Cc1nc(-n2nccn2)c(Cl)cc1NC(=O)c1cnn(-c2c[n+]([O-])cc3sccc23)c1C(F)(F)F [Cpd 410, 4-(4-((5-chloro-2-methyl-6-(2H-1,2,3-triazol-2-yl)pyridin-3-yl)carbamoyl)-5-(trifluoromethyl)-1H-pyrazol-1-yl)thieno[2,3-c]pyridine 6-oxide] | 7.15 | 7.03 | 7.17
18 | COc1ccc2c(-n3ncc(C(=O)Nc4cnc(-n5nccn5)c(Cl)c4)c3C(F)(F)F)cccc2n1 [Cpd 420, N-(5-chloro-6-(2H-1,2,3-triazol-2-yl)pyridin-3-yl)-1-(2-methoxyquinolin-5-yl)-5-(trifluoromethyl)-1H-pyrazole-4-carboxamide] | 8.00 | 6.35 | 6.47
19 | Nc1ncc(-n2ncc(C(=O)Nc3cncc(C(F)(F)F)c3)c2C(F)(F)F)c2ccccc12 [Cpd 342, 1-(1-aminoisoquinolin-4-yl)-5-(trifluoromethyl)-N-(5-(trifluoromethyl)pyridin-3-yl)-1H-pyrazole-4-carboxamide] | 6.94 | 6.79 | 6.88
